Key:
[1] = tested on: cervical intraepithelial neoplasia (CIN); assay: Placebo-controlled trial of oral indole-3-carbinol in patients with histologically confirmed CIN, 12 weeks; format: in vivo, human; conditions: for patients with complete regression based on 12-week biopsy: placebo 0 of 10; for mean grade change of CIN: placebo 1.22
Experimental: Thirty subjects with histologically confirmed CIN were enrolled. Eligibility requirements were as follows: adequate colposcopy, negative ECC, no suspicion of invasion, non-pregnant, and […]. Evaluating colposcopists and patients were blinded to the treatment. All residents and staff involved in the study were instructed regarding the protocol. The patients were randomized to placebo, 200 mg/day, or 400-mg/day treatment of indole-3-carbinol administered orally for 12 weeks. Randomization was performed by successively assigning patients from a computer-generated randomization table. […] All patients underwent colposcopy at the initial visit as well as at their 4-week, 8-week, and 12-week visit. Photodocumentation of each colposcopic examination was obtained. At the end of the trial, each patient was reexamined, and if the patient had persistent CIN on 12-week biopsy, or if the colposcopic impression was persistent CIN, they underwent LEEP of the transformation zone. The dysplasia was classified by the pathologists in the usual manner and defined as follows: mild dysplasia meaning the presence of immature (dysplastic) cells present in the lower third of the squamous mucosa, moderate dysplasia in the lower two thirds, severe dysplasia the lower three fourths of the thickness of the mucosa and carcinoma in situ (“CIS”) full thickness immaturity. The cases were originally diagnosed by a sign out pathologist. The diagnosis of all cases was verified by the same pathologist for uniformity. In all cases, the pathologist was in agreement with the pathologist that had signed out the case. HPV status was assessed in all patients by Hybrid capture assay tests ([…] Diagnostics; Beltsville, MD) for low-risk (HPV types 6, 11, 42, 43, 44) and high-risk (HPV types 16, 18, 31, 33, 35, 45, 51, 52, 56). If the Hybrid capture assay was negative; a follow-up polymerase chain reaction (PCR) analysis was performed using consensus primers shown below for the L-1 region of HPV to confirm HPV positivity. The PCR amplification conditions were optimized using DNA isolated from paraffin embedded control HPV positive cervical cancer specimens prior to analysis of the study patient'samples.

[2] = tested on: estradiol metabolism; assay: Urinary 2-hydroxyestrone to 16-alpha-hydroxyestrone ratio by ELISA in trial patients; format: in vivo, human
Experimental: Clean catch urine specimens were obtained from each patient at the initial visit and again at their 4-week visit. 2-hydroxyestrone to 16-alpha-hydrosytestrone ratios were assessed in each urine sample. Ascorbic acid was added to the urine specimens to aid in preservation for accurate analysis. ELISA assays were performed to assess the quantity of 2-hydroxyestrone and 16-alpha-hydroxyestrone in each urine sample, and were reported in ng/ml.

[3] = tested on: mammary carcinogenesis; conditions: rat model; cited from earlier work
[4] = tested on: HPV-induced benign tumors of laryngeal tissue; conditions: mouse model; cited from earlier work

SMILES: OCc1c[nH]c2ccccc12 [I3C, 1H-indole-3-methanol]
- relative risk (RR), protective effect ([1]; 200 mg/day group vs placebo, 95% CI 0.25 to 0.99, p=0.023): 0.50
- patients with complete regression based on 12-week biopsy ([1]; 200 mg/day orally for 12 weeks, 4 of 8 patients): 50.0%
- mean grade change of CIN ([1]; 200 mg/day orally for 12 weeks): 1.38
- relative risk (RR), protective effect ([1]; 400 mg/day group vs placebo, 95% CI 0.31 to 0.99, p=0.032): 0.55
- patients with complete regression based on 12-week biopsy ([1]; 400 mg/day orally for 12 weeks, 4 of 9 patients): 44.4%
- mean grade change of CIN ([1]; 400 mg/day orally for 12 weeks): 1.78
- patients with complete regression of CIN ([1]; 12 weeks of daily oral administration, summary statement): Roughly half
- correlation of HPV presence with response ([1]; HPV status by Hybrid capture assay / PCR): presence of HPV does not correlate with response
- dose response of mean grade of CIN regression ([1]; placebo, 200 mg/day and 400 mg/day groups): linear dose response relationship
- change of urinary 2-hydroxyestrone to 16-alpha-hydroxyestrone ratio before and after therapy ([2]; 200 mg/day and 400 mg/day groups, initiation vs 4 weeks, placebo showed a decrease): general trend in increase in the ratios
- physiologic effect of the drug ([2]; conclusion of the placebo-controlled trial): seen in a dose-dependent fashion
- inhibition of mammary carcinogenesis [3]: effective in inhibiting mammary carcinogenesis
- growth of HPV-induced benign tumors of laryngeal tissue [4]: inhibits growth

Source: patent US6399645B1, “Chemoprevention and treatment of cervical or vaginal neoplasia” (priority 2000, dated 2002)
